13 substances from US12583911B2, “Human immunodeficiency virus GP120 binding proteins” (ViiV Healthcare UK (No.5) Limited, priority 2022, dated 2026) can be followed below.

A short description of series [1]: Melting temperature (Tm) of soluble CD4 domains, Prometheus System. In kind it is physicochemical. The following applies: soluble CD4 domain with C-terminal 6xHis tag. The procedure:
The best performing variants (SEQ ID NOs: 5-21) were fused with 6×His tag at their C-termini, expressed and purified from mammalian cells using methods as described in Example 1, except that purification was via a Ni-NTA resin (Cytiva, Marlborough MA) instead of Mabselect SuRe column, with standard protocol from the vendor.
These purified CD4 D1 variants (with C-terminal 6xHis tag) were then evaluated to determine their melting temperature (Tm, using Prometheus System, NanoTemper, München Germany), which indicates thermal stability, as well as their anti-viral activity against HIV-1 pseudotyped virus (see Example 2 above for methods using ACTOne cells).

The test system of series [2] is HIV-2 Env-pseudotypes (HIV-2-AID, HIV-2-ATM88, HIV-2-HCC-01). Briefly: PSV assay (ACTOne cells), HIV-2 envelopes. It counts as cell-based. The procedure: (§1) The anti-viral activity of the antigen binding proteins was measured in a pseudotyped virus (PSV) assay.
(§2) PSV was produced in HEK-293T cells (ATCC, Manassas VA) by co-transfecting expression plasmids encoding the HIV-1 gp160 envelope gene and an HIV-1 backbone plasmid using TRANSIT-2020 transfection reagent (Mirus Bio, Madison WI). A panel of HIV-1 PSVs expressing different gp160 envelope trimers was generated to evaluate the effectiveness of the antigen binding proteins of the invention against a wide spectrum of HIV-1 strains.
(§3) The genome of PSV used in this assay contains a luciferase gene that is expressed once the virus enters cells. Accordingly, the luminescence signal (after adding a substrate of luciferase) can be used to determine the level of viral infection.
(§4) The 50% tissue culture infectious dose (TCID) of a single thawed aliquot of each batch of PSV was determined in ACTOne cells. The ACTOne cell-line used in this assay was derived in-house from a genetically engineered 293T cell clone that expresses CD4, CXCR4, and CCR5. Cells were maintained in growth medium composed of Dulbecco's modified Eagle's medium (DMEM, Life Technologies) at 37° C. in a humidified 5% CO2-95% air environment. Cell monolayers were split by treatment with Trypsin-EDTA (0.05%).
(§5) To run the anti-viral assay, ACTOne cells were detached by treating the cell culture flask with trypsin (trypsinization) and resuspended in growth medium containing 2% of DMSO to a density of 2.5×10^5 cells/ml. One hundred μl of such cells was added to 10 μl of antigen binding protein pre-loaded in a 96-well plate. Ninety μl of PSV was then added to each well. The assay plates were incubated at 37° C. in a humidified incubator at 5% CO2 level. Plates were developed after 72 hours of incubation by adding 50 μl of BRIGHTGLO luciferase reagent (Promega, Madison WI) to each well, and transferring the plates to an ENVISION multilabel plate reader (PerkinElmer, Waltham MA) to measure the luminescence and determine the level of virus that had infected the cells. The higher the luminescence signal, the higher the level of infection.
HIV-2 differs from HIV-1 in that it originates from the transmission of simian immunodeficiency virus (SIV) from sooty mangabeys (SIVsmm) to human (Gao et al, J Virol. 1994; 68 (11): 7433-7447) whilst HIV-1 stems from the transmission from chimpanzees and western gorillas (HIV-1 group M and O, respectively). HIV-2 can also cause AIDS but is far less pathogenic and wide-spread than HIV-1 (de Silva et al, Trends Microbiol. 2008; 16 (12): 588-595; Da Silva et al, AIDS. 2008; 22 (10): 1195-1202). Though also using CD4 for infection (Sattentau et al, AIDS. 1988; 2 (2): 101-105), HIV-2 shares only 40% identity in the gp160 amino acid sequence with HIV-1, and is therefore less sensitive or insensitive to HIV-1 envelope-directed bnAbs (Kong et al, JVI 2012; 86 (2): 947-960).

Series [3] deals with panel of HIV-1 envelopes (pseudotyped HIV-1 virus). Briefly: PSV assay (ACTOne cells), HIV-1 envelopes. In kind it is cell-based. How it is done:
as §1, §2, §3, §4, §5

[4] abbreviates: envelope CAP45.2.00.G3, PSV assay.

Take “D1m-E13C-I70C: soluble CD4 D1 variant of mD1.22 with E13C and I70C, SEQ ID NO:13, 6xHis tagged”: the “Tm (° C.)” value in series [1] is 78.8 °C.

With “D1m-E87G: soluble CD4 D1 variant of mD1.22 with E87G, SEQ ID NO:8, 6xHis tagged [Molecule D1m-E87G]”, the “Tm (° C.)” value in series [1] amounted to 71.9 °C.

Turning to “D1m-E91H: soluble CD4 D1 variant of mD1.22 with E91H, SEQ ID NO:7, 6xHis tagged [Molecule D1m-E91H]”, the “Tm (° C.)” value in series [1] was found to be 72.6 °C.

Consider “D1m-E91Q: soluble CD4 D1 variant of mD1.22 with E91Q, SEQ ID NO:6, 6xHis tagged [Molecule D1m-E91Q]”, for which, in series [1], the “Tm (° C.)” value came out at 72.4 °C.

With “D1m-H27C-G38C: soluble CD4 D1 variant of mD1.22 with H27C and G38C, SEQ ID NO:14, 6xHis tagged”, in series [1], the “Tm (° C.)” value amounted to 90.1 °C.

In the case of “D1m-K8C-G99C: soluble CD4 D1 variant of mD1.22 with K8C and G99C, SEQ ID NO:11, 6xHis tagged [Molecule D1m-K8C-G99C]”, the “Tm (° C.)” value in series [1] was found to be 88.8 °C.

Turning to “D1m-K8C-G99C_Fc: CD4 D1m-K8C-G99C domain fused to human Fc, SEQ ID NO:158; CD4 control”, the IC50 (as a rule, the concentration that gives 50% inhibition) was 24.4 nM in series [2] (envelope HIV-2-AID, PSV assay, ACTOne cells); 2.72 nM in series [2] (envelope HIV-2-ATM88, PSV assay); over 300 nM in series [2] (envelope HIV-2-HCC-01, ACTOne cells); over 300 nM in series [2] (envelope HIV-2-HCC-01, PSV assay); 143 nM in series [3] (envelope 93UG065, PSV assay); 4.28 nM in series [3] (envelope 246F3, PSV assay). Also, the IC50 in series [3] (envelope 0260.v5.c36, PSV assay) was 119 nM; in series [3] (envelope 398F1, PSV assay), 90.5 nM; in series [3] (envelope 928_28, PSV assay) it was 0.77 nM; in series [3] (envelope 3326_V4_C3), over 500 nM; in series [3] (envelope 3326_V4_C3, PSV assay), over 500 nM; in series [3] (envelope 3468_V1_C12) it was 64.2 nM. Moreover, the IC50 in series [3] (envelope 3468_V1_C12, PSV assay) was 64.2 nM; in series [3] (envelope 3637_V5_C3), over 500 nM; in series [3] (envelope 3637_V5_C3, PSV assay), over 500 nM; in series [3] (envelope 6471_V1_C16, PSV assay), 5.07 nM; in series [3] (envelope 25710, PSV assay), 1.32 nM; in series [3] (envelope 42368), 1.58 nM. The IC50 was determined as 1.58 nM in series [3] (envelope 42368, PSV assay); 99.3 nM in series [3] (envelope 620345_C1, PSV assay); 2.34 nM in series [3] (envelope BJOX2000, PSV assay); 20.5 nM in series [3] (envelope CAP45.2.00.G3); 20.5 nM in series [3] (setting [4]); 1.98 nM in series [3] (envelope CC1/85). Besides, the IC50 was 1.98 nM in series [3] (envelope CC1/85, PSV assay); 2.53 nM in series [3] (envelope CE0217, PSV assay); 4.22 nM in series [3] (envelope CE1176, PSV assay); 3.25 nM in series [3] (envelope CH119, PSV assay); 347 nM in series [3] (envelope CNE8, PSV assay); 41.8 nM in series [3] (envelope CNE55, PSV assay). Further, the IC50 turned out to be 5.47 nM in series [3] (envelope JR-CSF, PSV assay); 1.12 nM in series [3] (envelope JRFL, PSV assay); 11.8 nM in series [3] (envelope Q461_E2); 11.8 nM in series [3] (envelope Q461_E2, PSV assay); 1.43 nM in series [3] (envelope T278.50); 1.43 nM in series [3] (envelope T278.50, PSV assay). The IC50 is 39 nM in series [3] (envelope TH976_17, PSV assay); 147 nM in series [3] (envelope TRO11, PSV assay); 1.82 nM in series [3] (envelope X1632, PSV assay); 9.2 nM in series [3] (envelope X2088.C9); 9.2 nM in series [3] (envelope X2088.C9, PSV assay); 44.6 nM in series [3] (envelope X2278, PSV assay). Also, the IC50 in series [3] (envelope YU-2, PSV assay) is 0.2 nM; in series [3] (envelope ZM106.9), 15.1 nM; in series [3] (envelope ZM106.9, PSV assay) it was 15.1 nM.

In the case of “D1m-K8I: soluble CD4 D1 variant of mD1.22 with K8I, SEQ ID NO:10, 6xHis tagged [Molecule D1m-K8I]”, in series [1], the “Tm (° C.)” value worked out at 75.9 °C.

Turning to “D1m-K8V: soluble CD4 D1 variant of mD1.22 with K8V, SEQ ID NO:5, 6xHis tagged [Molecule D1m-K8V]”, the “Tm (° C.)” value in series [1] is 77.1 °C.

For the substance “D1m-K21C-G65C: soluble CD4 D1 variant of mD1.22 with K21C and G65C, SEQ ID NO:15, 6xHis tagged”, the “Tm (° C.)” value in series [1] was 80.1 °C.

With “D1m-N52W: soluble CD4 D1 variant of mD1.22 with N52W, SEQ ID NO:9, 6xHis tagged [Molecule D1m-N52W]”, in series [1], the “Tm (° C.)” value amounted to 72 °C.

With “D1m-T11C-K72C: soluble CD4 D1 variant of mD1.22 with T11C and K72C, SEQ ID NO:12, 6xHis tagged”, the “Tm (° C.)” value in series [1] amounted to 79.9 °C.

As to “D1mD2_His: soluble CD4 D1D2 variant mD1.22-D2 (SEQ ID NO:2) plus C-terminal 6xHis tag [Molecule D1mD2_His, reference compound]”, the IC50 in series [3] (envelope 42368, PSV assay) was 7.29 nM; in series [3] (envelope BJOX2000, PSV assay), 33.4 nM; in series [3] (setting [4]), over 500 nM; in series [3] (envelope CH119, PSV assay), 120 nM; in series [3] (envelope HXB2, PSV assay) it was 0.07 nM; in series [3] (envelope LAI, PSV assay), 5.41 nM. Besides, the IC50 worked out at 0.74 nM in series [3] (envelope NL4-3, PSV assay); 16 nM in series [3] (envelope T278.50, PSV assay); 17.3 nM in series [3] (envelope TRO11, PSV assay); 14.9 nM in series [3] (envelope X1632_S2_B10, PSV assay).
